{"source": "patent US20260209195A1", "about": "“METHOD FOR PRODUCING 2-AMINO-5-SUBSTITUTED-1,3,4-OXADIAZOLE” (MITSUBISHI GAS CHEMICAL NEXT COMPANY, INC., priority 2022, published 2026)", "assay": "solubility of 2-amino-5-methyl-1,3,4-oxadiazole in water and aqueous NaCl solution (salting-out effect)", "format": "physicochemical", "data": [{"smiles": "Cc1nnc(N)o1", "note": "[2-amino-5-methyl-1,3,4-oxadiazole]", "values": [{"measurement": "solubility in a 10 mass % aqueous NaCl solution", "setting": "10 mass % aqueous NaCl solution (30° C. as in the same sentence)", "value": 7.9, "unit": "% by mass"}, {"measurement": "solubility in a 26.4 mass % aqueous NaCl solution", "setting": "30° C.", "value": 3.5, "unit": "% by mass"}, {"measurement": "solubility in a 26.4 mass % aqueous NaCl solution", "setting": "−5° C.", "value": 1.1, "unit": "% by mass"}, {"measurement": "solubility in water", "setting": "water, 30° C.", "value": 13.9, "unit": "% by mass"}]}]}
